We go through 17 compounds from patent US8846704B2, “Thiopyrimidine-based compounds and uses thereof” (YM Biosciences Austraila Pty Ltd, priority 2007, dated 2014).

What all share (type): cell-based
One assay addresses T1, BaF3 TELJAK3 cells (Homo sapiens, UniProt P52333).
T1 construct: fused on or other part: TEL (ETV6) N-terminal part, coding nucleotides 1-487, serves as the oligomerising partner; It is fused through a Sal I site to the JAK3 kinase domain and expressed from pTRE2 in BaF3 cells bearing pTET-off; P41212 (Transcription factor ETV6)
T1 sequence (P52333 1-1124): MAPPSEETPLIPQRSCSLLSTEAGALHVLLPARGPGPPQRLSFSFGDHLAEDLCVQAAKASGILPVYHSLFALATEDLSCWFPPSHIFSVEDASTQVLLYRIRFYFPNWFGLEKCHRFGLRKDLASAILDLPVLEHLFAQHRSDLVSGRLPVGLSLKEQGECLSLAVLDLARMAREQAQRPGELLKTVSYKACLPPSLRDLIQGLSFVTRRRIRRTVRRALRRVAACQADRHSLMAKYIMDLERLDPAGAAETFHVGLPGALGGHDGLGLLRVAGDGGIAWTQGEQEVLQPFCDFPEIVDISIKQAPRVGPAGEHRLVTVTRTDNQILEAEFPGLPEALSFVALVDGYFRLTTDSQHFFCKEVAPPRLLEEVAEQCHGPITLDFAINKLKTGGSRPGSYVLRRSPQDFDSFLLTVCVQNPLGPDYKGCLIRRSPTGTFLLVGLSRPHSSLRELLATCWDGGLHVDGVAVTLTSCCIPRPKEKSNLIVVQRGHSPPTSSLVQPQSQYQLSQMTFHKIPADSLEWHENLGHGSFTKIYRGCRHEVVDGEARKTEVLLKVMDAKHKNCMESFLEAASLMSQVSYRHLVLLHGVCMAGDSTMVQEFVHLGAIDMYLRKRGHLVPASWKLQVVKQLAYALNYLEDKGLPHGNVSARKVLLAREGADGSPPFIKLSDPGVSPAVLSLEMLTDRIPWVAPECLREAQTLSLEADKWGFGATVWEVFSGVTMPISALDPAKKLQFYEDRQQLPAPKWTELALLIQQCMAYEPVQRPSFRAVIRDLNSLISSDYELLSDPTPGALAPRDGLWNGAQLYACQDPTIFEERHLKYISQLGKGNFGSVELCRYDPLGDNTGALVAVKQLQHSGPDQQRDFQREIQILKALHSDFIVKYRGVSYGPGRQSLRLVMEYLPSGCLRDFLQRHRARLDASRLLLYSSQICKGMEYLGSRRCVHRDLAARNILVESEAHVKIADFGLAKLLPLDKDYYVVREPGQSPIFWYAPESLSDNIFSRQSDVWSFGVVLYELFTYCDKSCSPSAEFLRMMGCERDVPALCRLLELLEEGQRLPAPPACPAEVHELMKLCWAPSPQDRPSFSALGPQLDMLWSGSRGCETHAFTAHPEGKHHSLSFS
Briefly: Cellular screening, BaF3 TEL:JAK3 cells, Alamar Blue. The note with it: 40 hr, read-out: BafT_J3 IC50_nM. On the procedure:
(§1) For screening purposes, compounds were diluted in 96 well plates at a concentration of 20 μM. Plates were warmed at 37° C. for 30 minutes before the assay was performed.
(§2) The coding region encompassing nucleotides 1-487 of TEL was amplified by PCR using the oligonucleotides STEL (5′-GGAGGATCCTGATCTCTCTCGCTGTGAGAC-3′) [SEQ ID NO 14] and 3TEL (5′-AGGC GTCGACTTCTTCTTCATGGTTCTG-3′) [SEQ ID NO 15] and U937 mRNA as a template. A […] restriction site was incorporated into the STEL primer, and a Sal I restriction site was incorporated into the 3TEL primer. The regions encompassing the kinase domain of JAK2 (nucleotides 2994-3914; JAK2F 5′-ACGC GTCGACGGTGCCTTTGAAGACCGGGAT-3′ [SEQ ID NO 16]; JAK2R 5′-ATAGTTTAGCGGCCGCTCAGAATGAAGGTCATTT-3′) [SEQ ID NO 17] and JAK3 (nucleotides 2520-3469; JAK3F 5′-GAAGTCGACTATGCCTGCCAAGACCCCACGATCTT-3′) [SEQ ID NO 18] were generated by PCR using Taq DNA polymerase (Gibco/BRL) and […] as a template. A Sal I restriction site was incorporated into the forward primer of JAK2 and JAK3, a Not I site was incorporated into the JAK2 reverse primer and a Xba I site was added to the reverse primer of JAK3.
The TEL/Jak3 fusion was prepared by ligation of the JAK3 Sal I/Not I cleaved kinase domain PCR product with the BamH I/Sal I restriction digested TEL product, followed by ligation of the ligation product into the BamH I/Not I digested pTRE2, to give the TEL/Jak3 fusion plasmid pTELJAK3.
(§3) The growth factor dependant myelomonocytic cell line BaF3 bearing the pTET-off plasmid (Clontech) was transfected with either pTELJAK2 or pTELJAK3, and the transfected cells were selected for growth-factor independent cell growth. The BaF3 wild-type cells were cultured in DMEM containing 10% FCS, 10% WEHI 3B conditioned medium. The BaF3 TELJAK cells ([…]) were cultured in DMEM 10% Tet-System Approved FBS (without WEHI 3B conditioned medium).
(§4) Cell suspensions were prepared by harvesting cells from culture (the cells used in this test were in late log phase growth with high viability.) Cells were diluted in the appropriate growth medium, as described above, to 1.1× final concentration (from 50,000 cell/mL to 200,000 cell/mL, depending on cell line).
(§5) Compounds to be tested were added (10 μL, 10× final concentration) to a flat bottomed 96-well plate. The cellular suspension (90 μL per well) was then added, and the plate incubated for 40 hr at 37° C., 5% CO2. Alamar Blue 10 μL per well was added and the plates returned to the incubator for a further 4-6 hours. The plates were then read at 544 nm.

The target in assay [1] is T2, BaF3 TELJAK2 cells (BafT_J2) (Homo sapiens, UniProt O60674).
T2 construct: fused on or other part: TEL (ETV6) N-terminal part, coding nucleotides 1-487, serves as the oligomerising partner; It is fused through a Sal I site to the JAK2 kinase domain and expressed from pTRE2 in BaF3 cells bearing pTET-off; P41212 (Transcription factor ETV6)
The experiment in a line: Cellular screening, BaF3 TEL:JAK2 cells, Alamar Blue. The note with it: 40 hr, read-out: BafT_J2 IC50_nM. On the procedure:
as §1, §2
A TEL/Jak2 fusion was generated by digestion of the TELPCR product with BamH I/Sal I restriction enzymes, digestion of the JAK2 PCR product with Sal I/Not I restriction enzymes, followed by ligation and subcloning of the ligation product into the mammalian expression Vector pTRE 2 (Clontech), which was prepared by digestion with BamH I-Not I restriction enzymes, to give the TEL/Jak2 fusion plasmid pTELJAK2.
as §3, §4, §5
(The colour change of resazurin is a common sign of viable cells or microbes.)

For the next assay, the system named is BaF3 wild-type cells. Briefly: Cellular screening, BaF3 wild-type cells, Alamar Blue. The note with it: Mus musculus, 40 hr, read-out: BAF3wt IC50_nM. How it is done:
as §1, §3, §4, §5

T2 sequence (O60674 whole entry, change not shown, the tested form may be a part): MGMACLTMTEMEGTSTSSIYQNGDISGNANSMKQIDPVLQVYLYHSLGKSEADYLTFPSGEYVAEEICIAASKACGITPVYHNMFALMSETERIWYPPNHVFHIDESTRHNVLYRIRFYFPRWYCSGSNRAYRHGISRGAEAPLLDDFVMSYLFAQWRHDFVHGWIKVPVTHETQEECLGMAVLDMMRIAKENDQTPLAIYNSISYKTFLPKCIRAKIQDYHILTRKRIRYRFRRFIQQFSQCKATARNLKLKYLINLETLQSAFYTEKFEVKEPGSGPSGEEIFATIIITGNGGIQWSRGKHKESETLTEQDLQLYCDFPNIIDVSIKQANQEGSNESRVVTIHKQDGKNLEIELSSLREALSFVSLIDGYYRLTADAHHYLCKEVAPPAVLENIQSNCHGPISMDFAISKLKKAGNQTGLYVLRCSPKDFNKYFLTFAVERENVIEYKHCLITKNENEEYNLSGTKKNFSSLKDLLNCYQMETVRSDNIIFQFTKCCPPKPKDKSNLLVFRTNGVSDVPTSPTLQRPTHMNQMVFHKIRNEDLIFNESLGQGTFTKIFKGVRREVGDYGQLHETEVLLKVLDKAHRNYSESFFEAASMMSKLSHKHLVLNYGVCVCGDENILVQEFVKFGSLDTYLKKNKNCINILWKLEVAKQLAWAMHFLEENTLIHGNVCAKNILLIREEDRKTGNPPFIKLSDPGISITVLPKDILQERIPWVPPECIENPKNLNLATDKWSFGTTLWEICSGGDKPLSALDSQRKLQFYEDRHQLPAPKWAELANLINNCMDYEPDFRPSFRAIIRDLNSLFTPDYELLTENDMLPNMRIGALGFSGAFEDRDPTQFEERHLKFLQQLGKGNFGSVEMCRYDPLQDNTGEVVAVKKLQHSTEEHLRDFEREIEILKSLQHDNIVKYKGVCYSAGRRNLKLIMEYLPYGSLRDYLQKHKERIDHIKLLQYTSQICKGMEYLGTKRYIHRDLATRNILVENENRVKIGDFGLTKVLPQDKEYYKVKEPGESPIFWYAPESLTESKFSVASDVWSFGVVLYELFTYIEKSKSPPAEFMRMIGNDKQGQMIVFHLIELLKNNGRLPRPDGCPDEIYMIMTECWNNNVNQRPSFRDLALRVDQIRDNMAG

Take `C=CC(=O)Nc1ccc(Sc2nc(Nc3ccc(NS(C)(=O)=O)c(OC)c3)ncc2C)cc1` [Compound 296, N-(4-(2-(3-methoxy-4-(methylsulfonamido)phenylao)-5-methylpyrimidin-4-ylthio)phenyl)acrylamide]: the GI50 on BaF3 TELJAK3 cells was less than 1 µM; in assay [1], less than 5 µM. Besides, in the assay on BaF3 wild-type cells, the IC50 is less than 5 µM.

Take `Cc1cc(N)ccc1Sc1nc(Nc2ccc(N3CCOCC3)cc2)ncc1C` [Compound 162, 4-(4-ao-2-methylphenylthio)-5-methyl-N-(4-morpholinophenyl)pyrimidin-2-ae]: the GI50 on BaF3 TELJAK3 cells was less than 5 µM; in assay [1], less than 20 µM. The IC50 in the assay with BaF3 wild-type cells is less than 20 µM.

On to `N#Cc1nnnn1Cc1ccc(Sc2ccnc(Nc3ccc(N4CCOCC4)cc3)n2)cc1` [Compound 155, 1-(4-(2-(4-morpholinophenylao)pyrimidin-4-ylthio)benzyl)-1H-tetrazole-5-carbonitrile], for which the GI50 (on BaF3 TELJAK3 cells; in assay [1]) was less than 20 µM each time. Further, the IC50 in the assay with BaF3 wild-type cells is less than 20 µM.

On to `OCc1ccc(Sc2ccnc(Nc3ccc(N4CCOCC4)cc3)n2)cc1` [Compound 67, (4-(2-(4-morpholinophenylao)pyrimidin-4-ylthio)phenyl)methanol], for which the GI50 (on BaF3 TELJAK3 cells; in assay [1]) was less than 20 µM each time. Besides, the IC50 with BaF3 wild-type cells is less than 20 µM.

For the compound `C=CC(=O)Nc1ccc(Sc2nc(Nc3ccc(N4CCOCC4)cc3)ncc2C)cc1CC` [Compound 260, N-(2-ethyl-4-(5-methyl-2-(4-morpholinophenylao)pyrimidin-4-ylthio)phenyl)acrylamide], the GI50 on BaF3 TELJAK3 cells is less than 5 µM; in assay [1] it was more than 20 µM. Moreover, the IC50 in the assay on BaF3 wild-type cells was more than 20 µM.

`C=CC(=O)Nc1ccc(Sc2nc(Nc3ccc(OCCCN(CC)CC)cc3)ncc2C)cc1` [Compound 291, N-(4-(2-(4-(3-(diethylao)propoxy)phenylao)-5-methylpyrimidin-4-ylthio)phenyl)acrylamide]: the values for the GI50 (on BaF3 TELJAK3 cells; in assay [1]) were less than 1 µM and less than 5 µM, respectively. Besides, the IC50 with BaF3 wild-type cells is less than 5 µM.

`Cc1cnc(Nc2cccc(N3CCN(C)CC3)c2)nc1Sc1ccc(N)cc1` [Compound 245, 4-(4-aophenylthio)-5-methyl-N-(3-(4-methylpiperazin-1-yl)phenyl)pyrimidin-2-ae]: the GI50 (at BaF3 TELJAK3 cells; in assay [1]) was less than 1 µM in each case. The IC50 in the assay on BaF3 wild-type cells was less than 1 µM.

As to `C=CC(=O)Nc1ccc(Sc2nc(Nc3cccc(N4CCOCC4)c3)ncc2I)cc1` [Compound 269, N-(4-(5-iodo-2-(3-morpholinophenylao)pyrimidin-4-ylthio)phenyl)acrylamide], the GI50 on BaF3 TELJAK3 cells is less than 1 µM; in assay [1] it was less than 20 µM.

`C=CC(=O)Nc1ccc(Sc2ccnc(Nc3ccc(N4CCOCC4)cc3)n2)cc1` [Compound 25, N-(4-(2-(4-morpholinophenylamino)pyrimidin-4-ylthio)phenyl)acrylamide]: the GI50 was less than 1 µM on BaF3 TELJAK3 cells and more than 20 µM in assay [1]. Further, in the assay with BaF3 wild-type cells, the IC50 is more than 20 µM.

As for `C=CC(=O)Nc1ccc(Sc2nc(Nc3ccc(N4CCC(CO)CC4)cc3)ncc2C)cc1` [Compound 286, N-(4-(2-(4-(4-(hydroxymethyl)piperidin-1-yl)phenylao)-5-methylpyrimidin-4-ylthio)phenyl)acrylamide], the GI50 was less than 1 µM on BaF3 TELJAK3 cells and more than 20 µM in assay [1]. The IC50 in the assay with BaF3 wild-type cells was more than 20 µM.

`C=CC(=O)Nc1ccc(Sc2nc(Nc3ccc(N4CCN(C)CC4)cc3)ncc2C)cc1` [Compound 239, N-(4-(5-methyl-2-(4-(4-methylpiperazin-1-yl)phenylao)pyrimidin-4-ylthio)phenyl)acrylamide]: the GI50 at BaF3 TELJAK3 cells was less than 1 µM; in assay [1], less than 5 µM. In the assay with BaF3 wild-type cells, the IC50 was less than 5 µM.

For the compound `Nc1ccc(Sc2nc(Nc3cccc(N4CCOCC4)c3)ncc2I)cc1` [Compound 264, 4-(4-aophenylthio)-5-iodo-N-(3-morpholinophenyl)pyrimidin-2-ae], the GI50 (at BaF3 TELJAK3 cells; in assay [1]) was less than 5 µM each time. Moreover, the IC50 with BaF3 wild-type cells was less than 5 µM.

For `C=CC(=O)Nc1ccc(Sc2ccnc(Nc3ccc(N4CCN(C)CC4)cc3)n2)cc1` [Compound 238, N-(4-(2-(4-(4-methylpiperazin-1-yl)phenylao)pyrimidin-4-ylthio)phenyl)acrylamide], the GI50 was less than 1 µM at BaF3 TELJAK3 cells and less than 5 µM in assay [1].

Regarding `CC#CC(=O)Nc1cccc(Sc2ccnc(Nc3cccc(N4CCOCC4)c3)n2)c1` [Compound 232, N-(3-(2-(3-morpholinophenylao)pyrimidin-4-ylthio)phenyl)but-2-ynamide], the GI50 is less than 5 µM on BaF3 TELJAK3 cells and less than 20 µM in assay [1].

For `C=CC(=O)Nc1ccc(Sc2nc(Nc3cccc(OC)c3)ncc2C)cc1` [Compound 235, N-(4-(2-(3-methoxyphenylao)-5-methylpyrimidin-4-ylthio)phenyl)acrylamide], the figures for the GI50 (on BaF3 TELJAK3 cells; in assay [1]) were less than 1 µM and less than 20 µM, respectively.

With `C=CC(=O)Nc1ccc(Sc2nc(Nc3ccc(C4CCN(C)CC4)cc3)ncc2C)cc1` [Compound 246, N-(4-(5-methyl-2-(4-(1-methylpiperidin-4-yl)phenylao)pyrimidin-4-ylthio)phenyl)acrylamide], the GI50 was less than 1 µM at BaF3 TELJAK3 cells and less than 5 µM in assay [1].

As to `C=CC(=O)Nc1ccc(Sc2ccnc(Nc3cccc(CO)c3)n2)cc1` [Compound 278, N-(4-(2-(3-(hydroxymethyl)phenylao)pyrimidin-4-ylthio)phenyl)acrylamide], the values for the GI50 (at BaF3 TELJAK3 cells; in assay [1]) were less than 1 µM and less than 5 µM, respectively.
